Assay results: patent US11292778B2, “Heterocyclyl polymethine IR chromophores” (The Regents of the University of California, priority 2017, dated 2022)
Values joined by “and” are separate entries in the source; they are usually repeats but may differ in a detail not shown here. Equal values may be shown once.

Columns and labels:
Assay type in all cases: physicochemical
[1] = Stability of Flav7 in acetonitrile in the presence of methanol, ethanol or water (absorption over time, LCMS); settings: for change of absorption over time: over 4 hours
Description: Concerned about the structure's susceptibility to nucleophilic attack, the stability of Flav7 in the presence of methanol, ethanol, and water was investigated. 3 was dissolved in acetonitrile, and 1-50% water, ethanol, or methanol was introduced. Changes in absorption spectra over time were monitored. […] Further evidence that 3 is stable to water include UV/Vis monitoring of the dose-dependent addition of water to 3 in acetonitrile followed by water removal.
(§1) Finally, the photoluminescence of Flav7 was compared to the prominent SWIR polymethine dyes, IR-26 and IR-1061. IR-26 has been widely-employed as a standard for this region, while IR-1061 has recently been the active component of nanomaterials for […] in vivo imaging. Despite numerous studies which rely on these dyes, the reported ΦF for IR-26 have been inconsistent, and the ΦF of IR-1061 has yet to be thoroughly characterized. Consequently, to establish that Flav7 is more emissive than existing SWIR polymethine dyes, each dye's emission was directly compared using a SWIR camera. We prepared solutions of 3, IR-26, and IR-1061 in dichloromethane with identical absorbance at 808 nm, excited with a diffuse 808 nm laser, and imaged their emission over 1000-1500 nm.

[2] = Emission spectra of the dyes in DCM; settings: dichloromethane, dyes 1, 3-6 and reference dyes
Text: (§2) The absorbance spectra in FIG. 2 and FIG. 5 were obtained in DCM on a JASCO V-770 UV-Visible/[…] spectrophotometer with a 2000 nm/min or 4000 nm/min scan rate. Plotted are the baseline corrected and normalized data. The emission spectra in FIG. 2 were taken in DCM on either a Horiba Instruments PTI QuantaMaster Series fluorometer (6), a Fluoromax-3 spectrofluorometer (1, 3-5), or home-built InGaAs array detector (Princeton Instruments). For 6 the following parameters were used: ex. 610 nm, emission collected from 620-900 nm, slits 5 nm, step size 1 nm, integration time 1 s. Plotted is the DCM corrected, baseline corrected, normalized data. For 1, and 3-5, the following parameters were used: slits 5 nm, step size 1 nm, integration time, 0.25 s. Excitation values and emission collection were as follows: 1 (ex. 460, collection 470-800 nm), 5 (ex. 675 nm, collection 685-950 nm), 4 (ex. 840 nm, emission 850-1100 nm), 3 (ex. 730 nm, emission 950-1400). Plotted are the baseline corrected, normalized data. The emission spectra in FIG. 5 were taken in dichloromethane on a Horiba Instruments QuantaMaster Series fluorometer with excitation slits: 15 nm, emission slits: 30 nm, step size: 1 nm, integration time: 0.1 s and excitation wavelengths as indicated.

[3] = Photobleaching under continuous-wave irradiation at 532 nm; settings: dichloromethane
Description: Photostabilities of the Flay series were measured under continuous-wave irradiation (532 nm, 0.53 fluence).

[4] = Absorbance spectra of the dyes in DCM (UV-Visible/NIR spectrophotometer)
Text: as §2

[5] = Solvatochromism of Flav7
Text: This family of flavylium dyes has photophysical qualities that are complementary to commonly used cyanine dyes. However, the premier dye in the series is the Flav7 (3) as few emissive polymethine dyes exist in this region. Thus, we thoroughly investigated its stability. First, we explored the solvatochromism of Flav7. […] However, in polar solvents, spectral broadening and accentuation of a high-energy shoulder were observed. This behavior is consistent with SWIR polymethine dyes that experience ground state symmetry breaking due to stabilization of an asymmetric electronic structure.

[6] = Comparative emission imaging with a SWIR InGaAs camera, 808 nm excitation
Text: as §1
Spatially dispersed 808 nm illumination was used to image 1 ml samples in 2.5 mL cuvettes of the SWIR dyes alongside a DCM blank. Each dye was compared at the same position to ensure consistent camera illumination. SWIR images were collected on an InGaAs camera (Princeton Instruments, NIRvana 640) with a 1000 nm long-pass filter. The camera was cooled to −80° C., the analog to digital (AD) conversion rate set to 2 MHz, the gain set to high, and different exposure times used to achieve sufficient signal and/or frame rates. All images were background- and blemish-corrected within the LightField imaging software. […]

[7] = Absolute fluorescence quantum yield using an integrating sphere; settings: dichloromethane; for ΦF (fluorescence quantum yield): absolute value
Description: Polymethine dyes disclosed herein are characterized with respect to their photophysics including absorption, emission, extinction coefficient, quantum yields, and fluorescence lifetime. All quantum yields values obtained are absolute quantum yields values measured using an integrating sphere. Photostabilities are evaluated by sample irradiation with high powered LEDs. Additionally, solvatochromism, solvent compatibility, and stability are assessed.

CN(C)c1ccc2c(c1)OC(c1ccccc1)=C/C2=C\C=C1/CCCC(/C=C/c2cc(-c3ccccc3)[o+]c3cc(N(C)C)ccc23)=C1Cl.[O-][Cl+3]([O-])([O-])[O-] [Dye 3, 4-((E)-2-((E)-2-chloro-3-(2-((E)-7-(dimethylamino)-2-phenyl-4H-chromen-4-ylidene)ethylidene)cyclohex-1-en-1-yl)vinyl)-7-(dimethylamino)-2-phenylchromenylium perchlorate]
degradation by LCMS over time ([1]; 0.1 mg/mL in acetonitrile with 10% water): no appreciable degradation | change of λmax,abs at 1013 nm ([1]; acetonitrile with 1% methanol): rapid loss | change of absorption over time ([1]; acetonitrile with 10% ethanol): slight loss | change of absorption over time ([1]; acetonitrile with 10% water): no significant change | absorbance at 1013 nm after water addition and water removal ([1]; acetonitrile, dose-dependent water addition followed by water removal, UV/Vis): restored upon water removal | emission (DCM) λmax [2]: 1045 nm | emission (DCM) λmax ([2]; listed as Flav7): 1061 nm and 1045 nm | relative rate, krel (photobleaching) ([3]; 532 nm irradiation): 40. ± 6. | raw rate, k (photobleaching) ([3]; continuous-wave irradiation 532 nm, 0.53 fluence): 28. ± 3. s^−1 × 10^−3 | ε at 532 nm [3]: 1.4 ± 0.2 M^−1cm^−1 × 10^4 | absorption red shift past IR-27 [4]: ~40 nm | absorption (DCM) λmax ([4]; dichloromethane, in example paragraphs the longest-wavelength absorbance peak): 1026 nm | variation of λmax,abs between solvents ([5]; dichloromethane, dimethyl sulfoxide, acetonitrile, tetrahydrofuran, acetone): minimal variation | behaviour in methanol ([5]; methanol as solvent): immediate color change | brightness relative to IR-26 [6]: 13 times | emission intensity compared with the other SWIR dyes ([6]; dichloromethane, identical absorbance at 808 nm, emission 1000-1500 nm): brightest of the three dyes | QE, εΦF (quantum efficiency) [7]: 1200 M⁻¹ cm⁻¹ | ΦF (fluorescence quantum yield) [7]: 0.53±0.03% and 0.53% | ΦF (fluorescence quantum yield) ([7]; listed as Flav7): 0.53% and 0.53±0.3% | QE, εΦF (quantum efficiency) ([7]; listed as Flav7): 1,200 M^−1cm^−1
